Results taken from patent US20240342292A1, “Compounds for the Degradation of EGFR Kinase” (BeiGene Switzerland GmbH, priority 2021, published 2024).

Key:
Del19/T790M/C797S EGFR = assay: EGFR degradation HTRF assay in H1975-clone #28 (DTC) cells; assay type: cell-based; settings: H1975 # 28 DTC (Del19/T790M/C797S), 16h treatment; for DC50: HTRF; for Dmax (%): maximum percentage of degradation
Summary of the method: (§1)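 Engineered H1975 lines (exogenous mutant EGFR, endogenous copies knocked out, single clones sequence-verified); 16 h compound, 37 °C/5% CO2, 0.2% DMSO; top 10 uM, 5-fold, 8 pts; lysis 1 h RT, HTRF antibodies overnight RT; 4-parameter logistic fit → DC50.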

L858R/T790M/C797S EGFR = target: T1, L858R/T790M/C797S EGFR (Homo sapiens, UniProt P00533, C797S/L858R/T790M); assay: EGFR degradation HTRF assay in H1975-clone #25 (LTC) cells; assay type: cell-based; settings: 16h treatment; for DC50: H1975 # 25-LTC (L858R/T790M/C797S), HTRF; for Dmax: NCI-H1975, H1975 # 25-LTC (L858R/T790M/C797S), maximum percentage of degradation
T1 construct: expressed in transfected cells; host or cells: H1975 clone #25 (lentiviral over-expression, endogenous EGFR knocked out by sgRNA)
Summary of the method: as §1

T1 sequence (P00533 25-1210 T790M/C797S/L858R): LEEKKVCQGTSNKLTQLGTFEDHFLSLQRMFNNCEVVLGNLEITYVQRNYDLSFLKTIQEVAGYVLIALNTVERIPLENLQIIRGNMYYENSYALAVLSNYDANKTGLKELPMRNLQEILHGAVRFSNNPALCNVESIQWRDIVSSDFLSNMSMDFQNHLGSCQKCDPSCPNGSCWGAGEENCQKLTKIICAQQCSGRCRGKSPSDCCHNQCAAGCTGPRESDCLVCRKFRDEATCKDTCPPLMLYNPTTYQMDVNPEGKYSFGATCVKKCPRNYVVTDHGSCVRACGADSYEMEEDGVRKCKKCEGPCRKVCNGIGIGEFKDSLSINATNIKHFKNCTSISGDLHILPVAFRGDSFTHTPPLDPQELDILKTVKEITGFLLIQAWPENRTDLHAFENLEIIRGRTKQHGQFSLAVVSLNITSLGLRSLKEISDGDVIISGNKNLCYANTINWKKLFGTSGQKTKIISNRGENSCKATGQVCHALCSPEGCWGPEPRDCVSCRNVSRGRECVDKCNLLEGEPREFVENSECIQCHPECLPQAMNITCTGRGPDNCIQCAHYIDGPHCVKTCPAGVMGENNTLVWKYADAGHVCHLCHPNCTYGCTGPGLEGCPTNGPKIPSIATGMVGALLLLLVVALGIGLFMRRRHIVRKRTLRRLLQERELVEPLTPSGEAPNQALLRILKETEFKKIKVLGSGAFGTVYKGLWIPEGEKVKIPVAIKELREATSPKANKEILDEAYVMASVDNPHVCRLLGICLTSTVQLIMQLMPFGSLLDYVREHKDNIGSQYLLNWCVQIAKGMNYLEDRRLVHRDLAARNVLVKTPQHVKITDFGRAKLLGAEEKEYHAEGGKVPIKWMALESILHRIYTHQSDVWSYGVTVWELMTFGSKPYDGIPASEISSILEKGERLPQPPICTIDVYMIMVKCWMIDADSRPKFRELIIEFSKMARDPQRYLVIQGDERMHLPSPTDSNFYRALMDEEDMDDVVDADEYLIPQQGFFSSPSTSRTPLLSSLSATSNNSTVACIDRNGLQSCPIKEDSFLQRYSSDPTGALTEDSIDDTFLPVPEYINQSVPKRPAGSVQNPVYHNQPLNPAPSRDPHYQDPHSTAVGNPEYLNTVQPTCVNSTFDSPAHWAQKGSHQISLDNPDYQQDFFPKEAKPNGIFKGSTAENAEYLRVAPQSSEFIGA

SMILES	DC50 (Del19/T790M/C797S EGFR) [nM]	Dmax (%) (Del19/T790M/C797S EGFR)	DC50 (L858R/T790M/C797S EGFR) [nM]	Dmax (L858R/T790M/C797S EGFR) [%]
Cc1cc2cc(n1)-c1cnn(C)c1OCCC[C@@H](C)CN1/C(=N/C2=O)Nc2ccc(N3CCN(CC4CN(c5cc(F)c([C@H]6CCC(=O)NC6=O)c(F)c5)C4)[C@H](CO)C3)cc21 [Example 451, (R)-3-(2,6-difluoro-4-(3-(((S)-2-(hydroxymethyl)-4-((R,E)-1^1,2^6,7-trimethyl-3-oxo-5^2,5^3-dihydro-1^1H,5^1H-11-oxa-4-aza-5(2,1)-benzo[d]imidazola-2(2,4)-pyridina-1(4,5)-pyrazolacycloundecaphane-5^6-yl)piperazin-1-yl)methyl)azetidin-1-yl)phenyl)piperidine-2,6-dione]	0.606	81.53	0.881	90.9
Cc1cc2cc(n1)-c1cnn(C)c1OCCC[C@@H](C)CN1/C(=N/C2=O)Nc2ccc(CN3CCC4(CC3)CN(C(=O)[C@H]3CN(c5cc(F)c([C@H]6CCC(=O)NC6=O)c(F)c5)CC3(C)C)C4)cc21 [Example 26, (R)-3-(4-((R)-3,3-dimethyl-4-(7-(((R,E)-1^1,2^6,7-trimethyl-3-oxo-5^2,5^3-dihydro-1^1H,5^1H-11-oxa-4-aza-5(2,1)-benzo[d]imidazola-2(2,4)-pyridina-(4,5)-pyrazolacycloundecaphane-5^6-yl)methyl)-2,7-diazaspiro[3.5]nonane-2-carbonyl)pyrrolidin-1-yl)-2,6-difluorophenyl)piperidine-2,6-dione]	2.4	81.2	2	93.7
Cc1cc2cc(n1)-c1cnn(C)c1OCCC[C@@H](C)CN1/C(=N/C2=O)Nc2ccc(C(=O)N(C)[C@@H]3CCN(CCc4cc(F)c([C@H]5CCC(=O)NC5=O)c(F)c4)C[C@@H]3F)cc21 [Example 344, (R,E)-N—((3S,4R)-1-(4-((R)-2,6-dioxopiperidin-3-yl)-3,5-difluorophenethyl)-3-fluoropiperidin-4-yl)-N,1^1,2^6,7-tetramethyl-3-oxo-5^2,5^3-dihydro-1^1H,5^1H-11-oxa-4-aza-5(2,1)-benzo[d]imidazola-2(2,4)-pyridina-1(4,5)-pyrazolacycloundecaphane-5^6-carboxamide]	0.62	83.22	0.386	92.8
Cc1cc2cc(n1)-c1cnn(C)c1OCCCC1(CC1)CN1/C(=N/C2=O)Nc2ccc(C(=O)N(C)C3CCN(CCc4cc(F)c([C@H]5CCC(=O)NC5=O)c(F)c4)CC3)cc21 [Example 236, (R,E)-N-(1-(4-(2,6-dioxopiperidin-3-yl)-3,5-difluorophenethyl)piperidin-4-yl)-N,1′,6′-trimethyl-3′-oxospiro[cyclopropane-1,7′-11-oxa-4-aza-5(2,1)-benzo[d]imidazola-2(2,4)-pyridina-1(4,5)-pyrazolacycloundecaphane]-6′-carboxamide]	0.42	87.56	0.546	88.4
COC[C@@H]1CN(c2ccc3c(c2)N2C[C@H](C)CCCOc4c(cnn4C)-c4cc(cc(C)n4)C(=O)/N=C/2N3)CCN1C1CCN(c2cc(F)c([C@H]3CCC(=O)NC3=O)c(F)c2)CC1 [Example 397, (R)-3-(2,6-difluoro-4-(4-((S)-2-(methoxymethyl)-4-((R,E)-1^1,2^6,7-trimethyl-3-oxo-5^2,5^3-dihydro-1^1H,5^1H-1i-oxa-4-aza-5(2,1)-benzo[d]imidazola-2(2,4)-pyridina-1(4,5)-pyrazolacycloundecaphane-5-yl)piperazin-1-yl)piperidin-1-yl)phenyl)piperidine-2,6-dione]	2.13	76.68	2.01	88.3
Cc1cc2cc(n1)-c1cnn(C)c1OCCC[C@@H](C)CN1/C(=N/C2=O)Nc2ccc(C(=O)OC3CCN(CCc4cc(F)c([C@H]5CCC(=O)NC5=O)c(F)c4)CC3)cc21 [Example 313, 1-(4-((R)-2,6-dioxopiperidin-3-yl)-3,5-difluorophenethyl)piperidin-4-yl (R,E)-1^1,2^6,7-trimethyl-3-oxo-5^2,5^3-dihydro-1^1H,5^1H-11-oxa-4-aza-5(2,1)-benzo[d]imidazola-2(2,4)-pyridina-1(4,5)-pyrazolacycloundecaphane-5^6-carboxylate]	0.967	70.56	1.25	81
Cc1cc2cc(n1)-c1cnn(C)c1OCCC[C@@H](C)CN1/C(=N/C2=O)Nc2ccc(N(C)C3CN(C4CCN(c5cc(F)c([C@H]6CCC(=O)NC6=O)c(F)c5)CC4)C3)cc21 [Example 438, (R)-3-(2,6-difluoro-4-(4-(3-(methyl((R,E)-1^1,2^6,7-trimethyl-3-oxo-5^2,5^3-dihydro-1^1H,5^1H-11-oxa-4-aza-5(2,1)-benzo[d]imidazola-2(2,4)-pyridina-1(4,5)-pyrazolacycloundecaphane-5^6-yl)amino)azetidin-1-yl)piperidin-1-yl)phenyl)piperidine-2,6-dione]	0.983	72.51	0.964	85.6
Cc1cc2cc(n1)-c1cnn(C)c1OCCC[C@@H](C)CN1/C(=N/C2=O)Nc2ccc(N3CCN(CCCNc4cc(F)c([C@H]5CCC(=O)NC5=O)c(F)c4)CC3)cc21 [Example 400, (R)-3-(2,6-difluoro-4-((3-(4-((R,E)-1^1,2^6,7-trimethyl-3-oxo-5^2,5^3-dihydro-1^1H,5^1H-11-oxa-4-aza-5(2,1)-benzo[d]imidazola-2(2,4)-pyridina-1(4,5)-pyrazolacycloundecaphane-5^6-yl)piperazin-1-yl)propyl)amino)phenyl)piperidine-2,6-dione]	0.628	79.74	0.915	89.8
Cc1cc2cc(n1)-c1cnn(C)c1OCCC[C@@H](C)CN1/C(=N/C2=O)Nc2ccc(C(=O)N(C)[C@@H]3C[C@H]4CC[C@@H](C3)N4CCc3cc(F)c([C@H]4CCC(=O)NC4=O)c(F)c3)cc21 [Example 265, (R,E)-N—((1R,3S,5S)-8-(4-((R)-2,6-dioxopiperidin-3-yl)-3,5-difluorophenethyl)-8-azabicyclo[3.2.1]octan-3-yl)-N,1^1,2^6,7-tetramethyl-3-oxo-5^2,5^3-dihydro-1^1H,5^1H-11-oxa-4-aza-5(2,1)-benzo[d]imidazola-2(2,4)-pyridina-1(4,5)-pyrazolacycloundecaphane-5^6-carboxamide]	0.625	79.26	0.246	90.9
Cc1cc2cc(n1)-c1cnn(C)c1OCCC[C@@H](C)CN1/C(=N/C2=O)Nc2ccc(C(=O)N(C)[C@@H]3CCN(CCc4cc(F)c([C@H]5CCC(=O)NC5=O)c(F)c4)C3)cc21 [Example 291, (R,E)-N—((R)-1-(4-((R)-2,6-dioxopiperidin-3-yl)-3,5-difluorophenethyl)pyrrolidin-3-yl)-N,1^1,2^6,7-tetramethyl-3-oxo-5^2,5^3-dihydro-1^1H,5^1H-11-oxa-4-aza-5(2,1)-benzo[d]imidazola-2(2,4)-pyridina-1(4,5)-pyrazolacycloundecaphane-5^6-carboxamide]	0.513	72.04	0.63	79
Cc1cc2cc(n1)-c1cnn(C)c1OCCC[C@@H](C)CN1/C(=N/C2=O)Nc2cc(F)c(C(=O)N(C)C3CCN(CCc4cc(F)c([C@H]5CCC(=O)NC5=O)c(F)c4)CC3)cc21 [Example 232, (R,E)-N-(1-(4-((R)-2,6-dioxopiperidin-3-yl)-3,5-difluorophenethyl)piperidin-4-yl)-5^5-fluoro-N,1^1,2^6,7-tetramethyl-3-oxo-5^2,5^3-dihydro-1^1H,5^1H-11-oxa-4-aza-5(2,1)-benzo[d]imidazola-2(2,4)-pyridina-1(4,5)-pyrazolacycloundecaphane-5^6-carboxamide]	0.292	82.7	0.318	92
Cc1cc2cc(n1)-c1c(C(F)F)nn(C)c1OCCC[C@@H](C)CN1/C(=N/C2=O)Nc2ccc(CN3CCN(C(=O)C4CN(c5cc(F)c([C@H]6CCC(=O)NC6=O)c(F)c5)C4)CC3)cc21 [Example 64, (R)-3-(4-(3-(4-(((R,E)-13-(difluoromethyl)-1^1,2^6,7-trimethyl-3-oxo-5^2,5^3-dihydro-1^1H,5^1H-11-oxa-4-aza-5(2,1)-benzo[d]imidazola-2(2,4)-pyridina-1(4,5)-pyrazolacycloundecaphane-5^6-yl)methyl)piperazine-1-carbonyl)azetidin-1-yl)-2,6-difluorophenyl)piperidine-2,6-dione]	1.51	80.65	3.13	76.8
Cc1cc2cc(n1)-c1cnn(C)c1OCCC[C@@H](C)CN1/C(=N/C2=O)Nc2ccc(N3CCN(C4CCN(c5ccc(C6CCC(=O)NC6=O)nc5)CC4)CC3=O)cc21 (stereo partly drawn) [Example 395, 3-(5-(4-(3-oxo-4-((R,E)-1^1,2^6,7-trimethyl-3-oxo-5^2,5^3-dihydro-1^1H,5^1H-11-oxa-4-aza-5(2,1)-benzo[d]imidazola-2(2,4)-pyridina-1(4,5)-pyrazolacycloundecaphane-5^6-yl)piperazin-1-yl)piperidin-yl-)pyridin-2-yl)piperidine-2,6-dione]	0.526	77.96	1.02	84.5
